Results as given in patent US12514800B2, “Personal and home care compositions comprising fatty acids from tung seed oil as antimicrobial preservative” (GALAXY SURFACTANTS LTD., priority 2020, dated 2026).

Test: UV absorption (E1% 1 cm)
Assay type: physicochemical
Settings: at the λmax printed in Table 1 (290 nm fatty acids; 305 nm Homosalate, Octyl salicylate)
Source text: Personal care composition comprising fatty acids, as obtained synthetically from Tung seed oil by aforementioned process, have good UV absorbing activity arising from the conjugated system of the fatty acids and is evident from its value of E1% lcm which is 1600 at 270 nm and 360 at 290 nm. In view of incorporation of the fatty acids in the personal care composition, not only the ingredients of the formulations are protected but also the skin and hair are protected from the ravages of solar radiation when the formulations are applied. […] The same is evident from the values of E1% lcm which is 360 at 290 nm (FIG. 2). UV B radiation of solar spectrum is the most damaging since it causes skin cancer.

For CC1CC(OC(=O)c2ccccc2O)CC(C)(C)C1 (stereo not shown) [Homosalate], the “E1%, 1 cm” value was 180.
